Assays:
Assay in all cases: MTT growth inhibition (GI50)
Type in all cases: cell-based
A549 = conditions: Homo sapiens, A549, cancer (others), 72 h
Experimental: (§1) Having shown that Compound 1 and its derivatives are effective against HeLa cervical cancer cells and human fibroblast BJ cell lines, Compound 1 was then tested against a panel of thirty different human cancer cells lines derived from gastric, colon, liver, breast, lung and cervical tumours and five different human normal cell lines, which were normal fibroblast cell lines (BJ normal, IMR90, WI38) and retinal pigmented epithelium cell lines (ARPE-19, hTert-immortalized RPE-1).
(§2) The cell lines detailed in Table 2, below, were cultured in the media shown and treated with Compound 1 at a range of different concentrations (from 0.1 μM to 10 μM) for 72 h in triplicate and a mean concentration value for Compound 1 to achieve 50% growth inhibition (GI50) in each cell line was determined by use of the MTT assay.
(§3) The MTT assay was performed by adding thiazolyl blue tetrazolium bromide (MTT reagent, Invitrogen) at a concentration of 0.5 mg/mL to each cell culture and the resulting mixture incubated for 4 h at 37° C. The medium was then removed, and the blue dye remaining in each well was dissolved in DMSO by mixing with a microplate mixer. The absorbance of each well at 540 nm and 660 nm was measured using a microplate reader (Benchmark plus, BIO-RAD). The optical density (OD) values were calculated by subtracting the absorbance at 660 nm from the absorbance at 540 nm. Mean OD values from control cells containing only DMSO treated wells were set as 100%. The resulting GI50 values (in μM) are set out in Table 2 below.

AGS = conditions: Homo sapiens, gastric cancer, 72 h
Experimental: as §1, §2, §3

ARPE-19 = conditions: Homo sapiens, ARPE-19, normal cell line, 72 h
Experimental: as §1, §2, §3

AZ521 = conditions: Homo sapiens, AZ-521, AZ521, gastric cancer, 72 h
Experimental: as §1, §2, §3

BJ Normal = conditions: Homo sapiens, normal cell line, 72 h
Experimental: as §1, §2, §3

DLD1 = conditions: Homo sapiens, DLD-1, DLD1, colon cancer, 72 h
Experimental: as §1, §2, §3

HCT116 = conditions: Homo sapiens, HCT-116, HCT116, colon cancer, 72 h
Experimental: as §1, §2, §3

HCT15 = conditions: Homo sapiens, HCT-15, HCT15, colon cancer, 72 h
Experimental: as §1, §2, §3

HGC27 = conditions: Homo sapiens, HGC-27, HGC27, gastric cancer, 72 h
Experimental: as §1, §2, §3

HT29 = conditions: Homo sapiens, HT-29, HT29, colon cancer, 72 h
Experimental: as §1, §2, §3

HeLa = conditions: Homo sapiens, cancer (others), 72 h
Experimental: as §1, §2, §3

Hep3 = conditions: Homo sapiens, Hep3, liver cancer, 72 h
Experimental: as §1, §2, §3

Huh7 = conditions: Homo sapiens, Huh-7, Huh7, liver cancer, 72 h
Experimental: as §1, §2, §3

IM95 = conditions: Homo sapiens, IM95, gastric cancer, 72 h
Experimental: as §1, §2, §3

IMR90 = conditions: Homo sapiens, IMR-90, IMR90, normal cell line, 72 h
Experimental: as §1, §2, §3

IST1 = conditions: Homo sapiens, IST1, gastric cancer, 72 h
Experimental: as §1, §2, §3

MCF7 = conditions: Homo sapiens, MCF7, breast cancer, 72 h
Experimental: as §1, §2, §3

MDA-MB-231 = conditions: Homo sapiens, MDA-MB-231, breast cancer, 72 h
Experimental: as §1, §2, §3

MKN45 = conditions: Homo sapiens, MKN-45, MKN45, gastric cancer, 72 h
Experimental: as §1, §2, §3

NCC19 = conditions: Homo sapiens, NCC19, gastric cancer, 72 h
Experimental: as §1, §2, §3

NCC24 = conditions: Homo sapiens, NCC24, gastric cancer, 72 h
Experimental: as §1, §2, §3

NCC59 = conditions: Homo sapiens, NCC59, gastric cancer, 72 h
Experimental: as §1, §2, §3

NUGC3 = conditions: Homo sapiens, NUGC-3, NUGC3, gastric cancer, 72 h
Experimental: as §1, §2, §3

NUGC4 = conditions: Homo sapiens, NUGC-4, NUGC4, gastric cancer, 72 h
Experimental: as §1, §2, §3

RPE-1/h-Tert = conditions: Homo sapiens, normal cell line, 72 h
Experimental: as §1, §2, §3

SCH = conditions: Homo sapiens, gastric cancer, 72 h
Experimental: as §1, §2, §3

SGCC-GC38 = conditions: Homo sapiens, SGCC-GC38, gastric cancer, 72 h
Experimental: as §1, §2, §3

SNU1750 = conditions: Homo sapiens, SNU1750, gastric cancer, 72 h
Experimental: as §1, §2, §3

SNU1 = conditions: Homo sapiens, SNU1, gastric cancer, 72 h
Experimental: as §1, §2, §3

SNU216 = conditions: Homo sapiens, SNU-216, SNU216, gastric cancer, 72 h
Experimental: as §1, §2, §3

SNU449 = conditions: Homo sapiens, SNU-449, SNU449, liver cancer, 72 h
Experimental: as §1, §2, §3

SNU620 = conditions: Homo sapiens, SNU620, gastric cancer, 72 h
Experimental: as §1, §2, §3

U2OS = conditions: Homo sapiens, cancer (others), 72 h
Experimental: as §1, §2, §3

WI38 = conditions: Homo sapiens, WI-38, WI38, normal cell line, 72 h
Experimental: as §1, §2, §3

Question: `N#C/C(=C\c1cccc2cnccc12)c1c[nH]c2ccccc12` [Compound 1, (Z)-2-(1H-indol-3-yl)-3-(isoquinolin-5-yl)acrylonitrile] was tested. Which GI50 (A549) did it give?
Answer: Its GI50 is 2000 nM.

Question: What about the GI50 (AGS) of the same molecule?
Answer: The GI50 was 1100 nM.

Question: And the GI50 (ARPE-19)?
Answer: The GI50 was greater than 10000 nM.

Question: What about the GI50 (AZ521) of the same molecule?
Answer: The GI50 was 2400 nM.

Question: And the GI50 (BJ Normal)?
Answer: The GI50 was 8100 nM.

Question: What about the GI50 (DLD1) of the same molecule?
Answer: The GI50 was 1200 nM.

Question: What about the GI50 (HCT116) of the same molecule?
Answer: Its GI50 is 1800 nM.

Question: And the GI50 (HCT15)?
Answer: Its GI50 is 500 nM.

Question: And the GI50 (HGC27)?
Answer: The GI50 was 1200 nM.

Question: And the GI50 (HT29)?
Answer: The GI50 was 900 nM.

Question: And the GI50 (HeLa)?
Answer: Its GI50 is 1400 nM.

Question: What about the GI50 (Hep3) of the same molecule?
Answer: The GI50 was 3700 nM.

Question: And the GI50 (Huh7)?
Answer: Its GI50 is 1200 nM.

Question: What about the GI50 (IM95) of the same molecule?
Answer: Its GI50 is 1000 nM.

Question: And the GI50 (IMR90)?
Answer: Its GI50 is 5800 nM.

Question: And the GI50 (IST1)?
Answer: The GI50 was 2200 nM.

Question: What about the GI50 (MCF7) of the same molecule?
Answer: The GI50 was 1200 nM.

Question: What about the GI50 (MDA-MB-231) of the same molecule?
Answer: The GI50 was 1100 nM.

Question: What about the GI50 (MKN45) of the same molecule?
Answer: Its GI50 is 1000 nM.

Question: What about the GI50 (NCC19) of the same molecule?
Answer: Its GI50 is 4600 nM.

Question: What about the GI50 (NCC24) of the same molecule?
Answer: Its GI50 is 1200 nM.

Question: What about the GI50 (NCC59) of the same molecule?
Answer: The GI50 was 900 nM.

Question: What about the GI50 (NUGC3) of the same molecule?
Answer: The GI50 was 1000 nM.

Question: What about the GI50 (NUGC4) of the same molecule?
Answer: The GI50 was greater than 10000 nM.

Question: And the GI50 (RPE-1/h-Tert)?
Answer: Its GI50 is 5200 nM.

Question: And the GI50 (SCH)?
Answer: The GI50 was 1700 nM.

Question: What about the GI50 (SGCC-GC38) of the same molecule?
Answer: The GI50 was 1900 nM.

Question: What about the GI50 (SNU1750) of the same molecule?
Answer: The GI50 was 700 nM.

Question: What about the GI50 (SNU1) of the same molecule?
Answer: Its GI50 is 900 nM.

Question: And the GI50 (SNU216)?
Answer: Its GI50 is 1900 nM.

Question: What about the GI50 (SNU449) of the same molecule?
Answer: Its GI50 is 2300 nM.

Question: And the GI50 (SNU620)?
Answer: The GI50 was 1000 nM.

Question: And the GI50 (U2OS)?
Answer: Its GI50 is 1500 nM.

Question: What about the GI50 (WI38) of the same molecule?
Answer: The GI50 was 3400 nM.

From patent US10308631B2, “Selective anti-cancer compounds” (NATIONAL UNIVERSITY OF SINGAPORE, priority 2015, dated 2019)
